Test [1] concerns the target C. elegans Slo-1a (Caenorhabditis elegans, UniProt Q95V25). Briefly: Agonistic activity at C. elegans Slo-1a, FLIPR membrane potential in CHO K1 cells. To be noted: EC50 agonistic activity at C. elegans Slo-1a, CHO K1 cells stably transfected with slo-1a, membrane potential dye.
Description: A CHO K1 cell line stably transfected with the Caenorhabditis elegans slo-1a (accession no Y51A2D.19a) was established. Cells were seeded in microtiter plates (black 384-well MTP, clear bottom) in a concentration of 10,000 cells/well in 25 μl medium and cultured for 20 to 24 hours at 37° C. and 5% CO2. After incubation, 25 μl of FMP-dye Blue-Tyrode's was added to each well and incubated at room temperature for 30 min. Ten minutes after addition of 12.5 μl compound solution, the plates are transferred to the FLIPR for measurement.
For the membrane potential measurements, the plates were placed in the FLIPR Penta (Molecular Devices). The baseline measurement of the fluorescence was stared for 20 sec (Exc. 510-545 nm, Emm. 565-625 nm). Potential channel opening measurement was started by addition of 25 μl of KCl-Tyrode (final assay concentration of the KCl-Tyrode: 70 mM KCl, 2 mM CaCl2, 1 mM MgCl2, 0.8 mM NaH2PO4, 5 mM Glucose, 28 mM Hepes, pH 7.4, including the voltage sensitive dye). The complete measurement takes 150 s.
EC50 values were determined in triplicate utilizing compound dilution series. The data were determined at least in two independent tests. The data were proceeded by using the ActivityBase XE Runner software (IDBS) for curve fitting and calculation of the half-maximal effective concentration.
The subject of test [2] is Ascaridia galli. Briefly: In vitro assay Ascaridia galli larval stage 3. The conditions noted are these: larval stage 3, 20 larvae per well, microscopic examination, read-out: MEC (minimum effective concentration) against Ascaridia galli L3. Type of test: cell-based. From the text:
(§1) […] galli (intestinal roundworm of chicken), larval stage 3 (“L3”); and Oesophagostumum dentatum (nodular worm of swine), larval stages 3 and 4 (respectively “L3” and “L4”) where suspended in a nutrient medium and distributed to 96 well plates with 20 larvae per well. The wells were spiked DMSO solutions of the compounds with declining concentration.

Test [3] addresses T1, human Maxi K channel (BK channel) (Homo sapiens, UniProt Q12791).
T1 construct: expressed in transfected cells; host or cells: CHO K1
Put plainly: Agonistic activity at the human Maxi K channel (BK channel), FLIPR membrane potential in CHO K1 cells. Type of test: cell-based. To be noted: CHO K1 cells stably transfected with KCNMA1 and beta1 (KCNMB1) subunits, membrane potential dye. From the text: A CHO K1 cell line was stably transfected with the KCNMA1 (KCa1.1, U11058) and beta1 (KCNMB1) subunits of the human Maxi K channel (Ponte et al, Molecular Pharmacology 2012, 81(4), 567-577).
The complete measurement takes 150 s.

The test system of test [4] is Oesophagostumum dentatum. Briefly: In vitro assay Oesophagostumum dentatum larval stage 4. Type of test: cell-based. To be noted: larval stage 4, 20 larvae per well, microscopic examination; read-out: MEC (minimum effective concentration) against Oesophagostumum dentatum L4.
Source text: as §1

Test [5] concerns Acanthocheilonema viteae. Briefly: In vitro assay Acanthocheilonema viteae L1 (microfilaria), motility. The conditions noted are these: 72 h, 3 days incubation, reduction in motility vs DMSO. It counts as cell-based. As to the method:
Approximately 500 A. viteae microfilaria were added to a microtiter plate containing a nutrient medium and the test compound in DMSO at varying concentrations. After incubation for 3 days, activity was evaluated as reduction in motility as compared to DMSO as negative control. Compounds were tested in duplicates. Based on the concentration response curves EC50 values were calculated.

Test [6] deals with Dirofilaria immitis. Put plainly: In vitro assay Dirofilaria immitis L1 (microfilaria), motility. It counts as cell-based. To be noted: 72 h, 3 days incubation, reduction in motility vs DMSO. As to the method:
Approximately 500 D. immitis microfilaria were added to a microtiter plate containing a nutrient medium and the test compound in DMSO at varying concentrations. After incubation for 3 days, activity was evaluated as reduction in motility as compared to DMSO as negative control. Compounds were tested in duplicates. Based on the concentration response curves EC50 values were calculated.

Test [7] relates to Oesophagostumum dentatum. Put plainly: In vitro assay Oesophagostumum dentatum larval stage 3. Type of test: cell-based. The conditions noted are these: larval stage 3, 20 larvae per well, microscopic examination; read-out: MEC (minimum effective concentration) against Oesophagostumum dentatum L3.
Source text: as §1

The values below come from patent US12692233B2, “Anthelmintic compounds comprising a pyridine structure” (Intervet Inc., priority 2020, dated 2026).

T1 sequence (Q12791 1-1178 isoform Q12791-5): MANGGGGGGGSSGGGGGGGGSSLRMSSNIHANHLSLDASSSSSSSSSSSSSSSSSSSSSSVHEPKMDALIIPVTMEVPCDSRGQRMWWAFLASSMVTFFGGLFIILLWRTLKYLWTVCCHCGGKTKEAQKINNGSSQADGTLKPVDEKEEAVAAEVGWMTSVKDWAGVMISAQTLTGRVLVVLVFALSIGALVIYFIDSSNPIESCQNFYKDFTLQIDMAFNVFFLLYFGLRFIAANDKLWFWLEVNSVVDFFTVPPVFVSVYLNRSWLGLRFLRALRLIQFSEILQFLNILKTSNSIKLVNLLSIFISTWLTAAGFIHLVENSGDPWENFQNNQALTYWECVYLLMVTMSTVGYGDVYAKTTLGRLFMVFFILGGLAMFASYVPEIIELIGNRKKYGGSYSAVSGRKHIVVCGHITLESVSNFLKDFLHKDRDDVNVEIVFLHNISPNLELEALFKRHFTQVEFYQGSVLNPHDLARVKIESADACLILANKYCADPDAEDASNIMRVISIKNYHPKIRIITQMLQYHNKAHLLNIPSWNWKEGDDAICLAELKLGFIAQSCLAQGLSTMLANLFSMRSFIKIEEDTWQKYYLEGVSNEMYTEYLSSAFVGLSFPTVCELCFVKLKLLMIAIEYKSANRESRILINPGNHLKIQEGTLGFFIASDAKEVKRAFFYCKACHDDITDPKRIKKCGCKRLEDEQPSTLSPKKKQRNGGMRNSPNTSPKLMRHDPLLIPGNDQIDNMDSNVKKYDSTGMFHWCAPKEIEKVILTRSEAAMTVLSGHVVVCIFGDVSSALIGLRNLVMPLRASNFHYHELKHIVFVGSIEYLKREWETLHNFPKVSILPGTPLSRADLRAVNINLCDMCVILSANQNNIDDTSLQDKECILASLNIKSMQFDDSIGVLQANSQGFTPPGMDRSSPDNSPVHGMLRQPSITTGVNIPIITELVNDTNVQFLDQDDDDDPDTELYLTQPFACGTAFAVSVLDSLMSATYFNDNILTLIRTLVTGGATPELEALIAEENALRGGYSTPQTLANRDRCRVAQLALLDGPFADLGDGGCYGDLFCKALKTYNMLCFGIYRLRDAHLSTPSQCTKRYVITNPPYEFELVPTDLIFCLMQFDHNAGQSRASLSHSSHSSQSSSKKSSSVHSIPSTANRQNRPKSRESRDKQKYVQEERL
T1 sequence (Q16558 whole entry partner): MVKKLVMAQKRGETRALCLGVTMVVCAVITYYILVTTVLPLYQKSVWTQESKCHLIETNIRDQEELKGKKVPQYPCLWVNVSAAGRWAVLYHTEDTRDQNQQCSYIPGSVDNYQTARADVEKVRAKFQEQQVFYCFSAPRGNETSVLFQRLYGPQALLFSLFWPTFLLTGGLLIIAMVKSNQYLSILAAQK
Chain of C. elegans Slo-1a (Q95V25 whole entry): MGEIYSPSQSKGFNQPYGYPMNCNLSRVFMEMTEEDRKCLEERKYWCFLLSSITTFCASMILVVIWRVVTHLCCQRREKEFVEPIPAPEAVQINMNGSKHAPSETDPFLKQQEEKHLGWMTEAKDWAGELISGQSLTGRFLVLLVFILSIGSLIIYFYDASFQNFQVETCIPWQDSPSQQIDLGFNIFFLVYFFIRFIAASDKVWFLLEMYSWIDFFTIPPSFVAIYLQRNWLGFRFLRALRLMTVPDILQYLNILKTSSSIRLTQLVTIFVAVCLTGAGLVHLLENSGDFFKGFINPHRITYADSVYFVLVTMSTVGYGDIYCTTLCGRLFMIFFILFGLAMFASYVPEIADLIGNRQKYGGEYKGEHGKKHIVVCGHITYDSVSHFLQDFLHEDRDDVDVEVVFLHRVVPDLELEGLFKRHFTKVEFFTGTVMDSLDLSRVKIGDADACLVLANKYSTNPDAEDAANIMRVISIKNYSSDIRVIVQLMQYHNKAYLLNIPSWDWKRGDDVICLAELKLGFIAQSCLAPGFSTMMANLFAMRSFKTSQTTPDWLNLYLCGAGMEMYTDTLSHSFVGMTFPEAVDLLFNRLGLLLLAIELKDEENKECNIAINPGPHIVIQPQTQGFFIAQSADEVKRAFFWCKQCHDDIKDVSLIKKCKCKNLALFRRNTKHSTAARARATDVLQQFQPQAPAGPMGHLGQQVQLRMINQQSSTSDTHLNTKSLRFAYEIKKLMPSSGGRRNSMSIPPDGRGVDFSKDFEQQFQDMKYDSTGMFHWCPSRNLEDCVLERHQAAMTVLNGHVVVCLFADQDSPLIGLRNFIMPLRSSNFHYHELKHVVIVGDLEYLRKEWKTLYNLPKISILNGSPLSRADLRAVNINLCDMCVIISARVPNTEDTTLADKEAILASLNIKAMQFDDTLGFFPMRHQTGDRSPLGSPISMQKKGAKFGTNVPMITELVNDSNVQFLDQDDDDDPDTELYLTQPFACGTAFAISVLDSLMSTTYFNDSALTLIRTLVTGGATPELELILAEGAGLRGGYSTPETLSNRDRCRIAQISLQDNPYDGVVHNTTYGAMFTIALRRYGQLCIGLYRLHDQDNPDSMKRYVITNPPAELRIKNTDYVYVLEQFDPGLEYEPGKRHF

As for `COc1cc(Sc2cccc(Cl)c2Cl)ncc1C(=O)N[C@H]1CCc2ccccc21` [Compound 67], the EC50 was < 10 µM in test [1], > 30 µM in test [3] and < 10 µM in test [5]. In addition, the minimal effective concentration in test [2] and in test [4] was ≤ 50 µM each time.

Regarding `CN(C)c1cc(Oc2cccc(Cl)c2Cl)ncc1C(=O)Nc1csc2ccccc12` [Compound 37], the minimal effective concentration in test [2] and in test [4] was ≤ 50 µM in each case. The EC50 is > 30 µM in test [3] and < 10 µM in test [5].

Regarding `CCOc1cc(Sc2cc(Cl)cc(Cl)c2)ncc1C(=O)N[C@H]1CCc2ccccc21` [Compound 97], the EC50 is > 30 µM in test [3] and < 10 µM in test [5].

With `COc1cc(Oc2cccc(Cl)c2Cl)ncc1C(=O)N[C@H]1CCc2ccccc21` [Compound 94], the results for the EC50 in test [6], in test [3] and in test [5] were < 10 µM, > 30 µM and < 10 µM, respectively.

`COc1cc(Oc2cccc(Cl)c2Cl)ncc1C(=O)N[C@H]1CCOc2ccccc21` [Compound 95]: the values for the EC50 in test [6], in test [3] and in test [5] were < 10 µM, > 30 µM and < 10 µM, respectively. Further, the minimal effective concentration in test [2] was ≤ 50 µM.

With `CN(C)c1cc(Oc2cccc(Cl)c2Cl)ncc1C(=O)Nc1cccc2ccccc12` [Compound 36], the EC50 was < 10 µM in test [6], > 30 µM in test [3] and < 10 µM in test [5]. Moreover, the minimal effective concentration in test [7] and in test [4] was ≤ 50 µM each time.

As to `COc1cc(Sc2cc(Cl)cc(Cl)c2)ncc1C(=O)N[C@H]1CCc2ccccc21` [Compound 84], the EC50 was < 10 µM in test [1], > 30 µM in test [3] and < 10 µM in test [5]. Further, the minimal effective concentration in test [7] and in test [4] was ≤ 50 µM each time.

For `O=C(Nc1csc2ccccc12)c1cnc(Oc2cccc(Cl)c2Cl)cc1N1CCOCC1` [Compound 46], the EC50 in test [6] was < 10 µM; in test [3], > 30 µM; in test [5], < 10 µM.

`CSc1cc(Oc2cccc(Cl)c2Cl)ncc1C(=O)N[C@H]1CCOc2ccccc21` [Compound 57]: in test [2], the minimal effective concentration is ≤ 50 µM. For the same compound, the EC50 in test [3] was > 30 µM; in test [5], < 10 µM.

In the case of `O=C(N[C@@H]1CCOc2ccccc21)c1cnc(Oc2cc(Cl)cc(Cl)c2)cc1N1CCOCC1` [Compound 24], the EC50 in test [6] was < 10 µM; in test [3], > 30 µM. The minimal effective concentration in test [7] and in test [4] was ≤ 50 µM in each case.

Regarding `CCOc1cc(Oc2cc(Cl)cc(Cl)c2)ncc1C(=O)N[C@H]1CCc2ccccc21` [Compound 90], the minimal effective concentration in test [2] and in test [7] was ≤ 50 µM in each case. Besides, the EC50 in test [3] was > 30 µM; in test [5] it was < 10 µM.

In the case of `CN(C)c1cc([S+]([O-])c2cc(Cl)cc(Cl)c2)ncc1C(=O)N[C@H]1CCOc2ccccc21` (stereo partly shown) [Compound 103], the EC50 is < 10 µM in test [6], < 10 µM in test [1] and > 30 µM in test [3]. The minimal effective concentration in test [2], in test [7] and in test [4] was ≤ 50 µM throughout.

In the case of `CN(C)c1cc(Sc2cccc(Cl)c2Cl)ncc1C(=O)N[C@@H]1CCOc2ccccc21` [Compound 39], the EC50 in test [6] is < 10 µM; in test [3] it was > 30 µM; in test [5], < 10 µM. Moreover, the minimal effective concentration in test [7] was ≤ 50 µM.
